Experimental findings from paper PMC8718961, “The CbbQO-type rubisco activases encoded in carboxysome gene clusters can activate carboxysomal form IA rubiscos” (The Journal of Biological Chemistry, 2021) are described below.

For experiment [1], the target named is T1, AfQ3O3 (carboxysomal CbbQO rubisco activase) (Acidithiobacillus ferrooxidans, UniProt B7JB17).
T1 construct: gene p30; recombinant E. coli BL21(DE3), pHue and pBad33 (ubiquitin-type) vectors; CbbQ hexamer with CbbO; with CbbO protein (von Willebrand factor A domain, rubisco activase adaptor)
T1 sequence (B7JB16 entry or part of it): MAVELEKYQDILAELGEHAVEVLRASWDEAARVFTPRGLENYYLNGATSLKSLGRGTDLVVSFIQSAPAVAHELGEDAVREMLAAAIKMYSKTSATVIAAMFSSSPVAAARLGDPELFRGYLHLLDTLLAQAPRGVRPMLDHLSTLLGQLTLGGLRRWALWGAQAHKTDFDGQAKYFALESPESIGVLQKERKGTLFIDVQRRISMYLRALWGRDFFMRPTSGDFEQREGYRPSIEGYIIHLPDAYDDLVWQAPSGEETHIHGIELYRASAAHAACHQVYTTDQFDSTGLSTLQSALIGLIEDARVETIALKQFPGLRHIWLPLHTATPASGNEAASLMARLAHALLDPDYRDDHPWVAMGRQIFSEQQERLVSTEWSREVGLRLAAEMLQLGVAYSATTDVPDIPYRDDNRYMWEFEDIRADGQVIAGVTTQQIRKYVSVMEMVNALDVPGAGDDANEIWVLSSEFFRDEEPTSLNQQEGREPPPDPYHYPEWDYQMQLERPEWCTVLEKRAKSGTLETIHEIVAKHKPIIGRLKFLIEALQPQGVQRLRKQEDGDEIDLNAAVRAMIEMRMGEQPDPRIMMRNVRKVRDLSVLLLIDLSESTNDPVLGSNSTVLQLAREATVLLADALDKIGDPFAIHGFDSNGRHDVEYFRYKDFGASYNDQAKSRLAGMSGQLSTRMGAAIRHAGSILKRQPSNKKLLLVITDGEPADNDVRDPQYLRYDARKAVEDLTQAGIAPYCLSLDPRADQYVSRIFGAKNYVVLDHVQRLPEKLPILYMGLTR
T1 sequence (B7JB17 entry or part of it): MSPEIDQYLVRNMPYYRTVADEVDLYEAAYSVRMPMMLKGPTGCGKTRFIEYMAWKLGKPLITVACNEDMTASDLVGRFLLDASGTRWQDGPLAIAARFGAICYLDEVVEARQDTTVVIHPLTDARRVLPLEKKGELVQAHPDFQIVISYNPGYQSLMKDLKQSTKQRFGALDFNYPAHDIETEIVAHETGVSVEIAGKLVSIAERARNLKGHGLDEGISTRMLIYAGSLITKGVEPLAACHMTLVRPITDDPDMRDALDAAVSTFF
Nature of the experiment: ATPase, coupled spectrophotometric assay. Format: biochemical. The note with it: 0.27 µM oligomer, 25 °C.

Experiment [2] concerns the target T2, AfQ1O1 (form IA^Q-associated CbbQO rubisco activase) (Acidithiobacillus ferrooxidans, UniProt B7JA26).
T2 construct: gene cbbQ-1; recombinant E. coli BL21(DE3), pHueAfCbbQ1 and pBad33UbAfcbbO1; CbbQ hexamer with CbbO; with CbbO protein (von Willebrand factor A domain, rubisco activase adaptor)
T2 sequence (B7JA26 1-267): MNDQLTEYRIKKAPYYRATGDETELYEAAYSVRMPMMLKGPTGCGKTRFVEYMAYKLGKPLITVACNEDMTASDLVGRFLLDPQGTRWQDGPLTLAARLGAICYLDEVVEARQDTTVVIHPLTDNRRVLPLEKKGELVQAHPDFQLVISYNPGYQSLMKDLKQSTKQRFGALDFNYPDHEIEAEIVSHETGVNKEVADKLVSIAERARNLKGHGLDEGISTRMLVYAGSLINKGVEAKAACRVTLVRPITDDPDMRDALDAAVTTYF
T2 sequence (B7JA27 1-772 partner): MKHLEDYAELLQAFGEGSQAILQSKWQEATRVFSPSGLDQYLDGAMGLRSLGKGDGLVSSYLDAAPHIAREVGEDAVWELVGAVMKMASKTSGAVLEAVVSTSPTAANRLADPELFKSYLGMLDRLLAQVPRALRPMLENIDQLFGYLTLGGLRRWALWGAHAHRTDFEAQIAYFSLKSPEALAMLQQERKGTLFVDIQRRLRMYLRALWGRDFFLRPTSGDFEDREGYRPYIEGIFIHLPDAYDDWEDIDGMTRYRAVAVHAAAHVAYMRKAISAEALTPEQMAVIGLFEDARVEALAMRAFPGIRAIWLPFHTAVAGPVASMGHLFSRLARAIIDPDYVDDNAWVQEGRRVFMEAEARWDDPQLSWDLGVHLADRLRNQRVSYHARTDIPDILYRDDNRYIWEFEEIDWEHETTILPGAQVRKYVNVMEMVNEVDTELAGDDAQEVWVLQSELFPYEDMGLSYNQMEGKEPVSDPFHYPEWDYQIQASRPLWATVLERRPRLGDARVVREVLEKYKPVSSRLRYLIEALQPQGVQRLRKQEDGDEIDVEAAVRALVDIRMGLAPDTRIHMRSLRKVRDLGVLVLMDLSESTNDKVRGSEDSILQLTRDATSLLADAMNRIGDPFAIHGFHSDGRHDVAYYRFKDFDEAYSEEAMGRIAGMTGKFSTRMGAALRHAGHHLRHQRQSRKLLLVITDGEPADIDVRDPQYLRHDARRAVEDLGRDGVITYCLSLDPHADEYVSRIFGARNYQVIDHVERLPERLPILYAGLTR
The experiment in a line: ATPase, coupled spectrophotometric assay. Type of experiment: biochemical. To be noted: 0.27 µM oligomer, 25 °C.

For experiment [3], the target named is A. ferrooxidans carboxysomal form IA^C rubisco with the last three residues of the large subunit changed from VNR to AHK (Acidithiobacillus ferrooxidans ATCC23270).
Experiment [4] concerns the target A. ferrooxidans carboxysomal form IA^C rubisco with N472H in the large subunit (Acidithiobacillus ferrooxidans ATCC23270).
Experiment [5] has as its target T3, AfL2S2 (form IA^C carboxysomal rubisco) (Acidithiobacillus ferrooxidans, UniProt B7JB30).
T3 construct: gene cbbL1; recombinant E. coli BL21(DE3); large and small subunits; anion exchange and size exclusion
The experiment in a line: RuBP release rate from apo-rubisco-RuBP (ER) complex, carboxylation time course. Type of experiment: biochemical. The note with it: apoenzyme with 0.4 mM RuBP; assay 50 mM NaHCO3, 1 mM RuBP, 25 °C; active site.

Experiment [6] concerns the target T4, AfL2S2 (form IA^C carboxysomal rubisco) (Acidithiobacillus ferrooxidans, UniProt B7JB30, V471A/N472H/R473K).
T4 construct: gene cbbL1; recombinant E. coli BL21(DE3); large and small subunits; anion exchange and size exclusion
The experiment in a line: spontaneous RuBP release from ER complex. Format: biochemical. To be noted: apoenzyme with RuBP; 25 °C; active site; printed as VNR C terminus substituted with AHK.

For a further experiment, the target named is T5, SynLS (form IB rubisco) (Synechococcus elongatus, UniProt P00880).
T5 construct: gene cbbL; large and small subunits
The experiment in a line: RuBP release rate from apo-rubisco-RuBP (ER) complex, carboxylation time course. To be noted: apoenzyme with 0.4 mM RuBP; assay 50 mM NaHCO3, 1 mM RuBP, 25 °C; active site. Type of experiment: biochemical.

In experiment [7] the target is T6, AfL1S1 (form IA^Q rubisco) (Acidithiobacillus ferrooxidans, UniProt B7JA24).
T6 construct: gene cbbL2; recombinant E. coli BL21(DE3); large and small subunits; anion exchange and size exclusion
T6 sequence (B7JA24 whole entry): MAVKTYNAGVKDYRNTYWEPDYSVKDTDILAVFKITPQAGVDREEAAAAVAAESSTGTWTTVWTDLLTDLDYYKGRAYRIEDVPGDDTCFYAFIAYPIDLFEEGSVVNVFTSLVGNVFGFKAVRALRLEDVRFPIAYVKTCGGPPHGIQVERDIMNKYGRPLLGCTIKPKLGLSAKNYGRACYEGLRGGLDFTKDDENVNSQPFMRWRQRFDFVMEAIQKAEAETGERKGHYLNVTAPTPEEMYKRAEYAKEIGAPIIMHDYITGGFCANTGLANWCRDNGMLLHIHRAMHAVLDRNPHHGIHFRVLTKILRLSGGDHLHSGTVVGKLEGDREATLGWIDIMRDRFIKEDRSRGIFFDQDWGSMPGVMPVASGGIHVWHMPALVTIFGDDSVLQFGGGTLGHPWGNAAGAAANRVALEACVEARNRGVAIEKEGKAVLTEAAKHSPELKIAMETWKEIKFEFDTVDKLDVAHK
T6 sequence (B7JA25 1-118 partner): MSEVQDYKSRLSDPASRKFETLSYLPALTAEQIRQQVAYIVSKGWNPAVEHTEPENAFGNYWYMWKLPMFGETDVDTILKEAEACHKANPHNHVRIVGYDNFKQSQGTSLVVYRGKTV
The description is as above. Format: biochemical. The note with it: apoenzyme with 0.4 mM RuBP; assay 50 mM NaHCO3, 1 mM RuBP, 25 °C; active site.

For experiment [8], the target named is T7, HnLS (form IA^C carboxysomal rubisco) (Halothiobacillus neapolitanus, UniProt O85040).
T7 construct: gene cbbL; recombinant E. coli BL21(DE3), pET30bHnLS (NdeI/HindIII); large and small subunits; anion exchange and size exclusion
T7 sequence (O85040 whole entry): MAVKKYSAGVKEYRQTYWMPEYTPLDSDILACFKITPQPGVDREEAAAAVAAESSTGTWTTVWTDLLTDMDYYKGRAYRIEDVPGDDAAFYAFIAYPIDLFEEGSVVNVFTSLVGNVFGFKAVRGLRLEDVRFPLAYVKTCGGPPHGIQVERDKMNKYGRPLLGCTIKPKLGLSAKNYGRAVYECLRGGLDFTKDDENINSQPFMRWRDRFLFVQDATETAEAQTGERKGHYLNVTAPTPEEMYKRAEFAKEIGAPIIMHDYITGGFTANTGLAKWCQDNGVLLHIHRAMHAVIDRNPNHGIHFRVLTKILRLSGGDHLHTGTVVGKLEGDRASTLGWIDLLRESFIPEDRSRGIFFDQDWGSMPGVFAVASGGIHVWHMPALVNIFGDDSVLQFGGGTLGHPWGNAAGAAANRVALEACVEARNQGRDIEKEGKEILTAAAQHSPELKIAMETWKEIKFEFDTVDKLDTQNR
T7 sequence (P45686 whole entry partner): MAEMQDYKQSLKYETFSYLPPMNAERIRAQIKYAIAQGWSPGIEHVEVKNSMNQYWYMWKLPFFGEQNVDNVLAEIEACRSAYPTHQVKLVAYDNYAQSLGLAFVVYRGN
Described as above. Format: biochemical. To be noted: apoenzyme with 0.4 mM RuBP; assay 50 mM NaHCO3, 1 mM RuBP, 25 °C; active site.

Experiment [9] concerns the target T8, AfL2S2 (form IA^C carboxysomal rubisco) (Acidithiobacillus ferrooxidans, UniProt B7JB30, N472H).
T8 construct: gene cbbL1; recombinant E. coli BL21(DE3); large and small subunits; anion exchange and size exclusion
Nature of the experiment: spontaneous RuBP release from ER complex. Format: biochemical. The note with it: apoenzyme with RuBP; 25 °C; active site.

For experiment [10], the target named is A. ferrooxidans carboxysomal form IA^C rubisco with the last three residues of the large subunit changed from VNR to AHK (Acidithiobacillus ferrooxidans ATCC23270). The source holds these as a separate data set.
The target of experiment [11] is A. ferrooxidans carboxysomal form IA^C rubisco with N472H in the large subunit (Acidithiobacillus ferrooxidans ATCC23270). The source holds these as a separate data set.
Experiment [12] concerns the target T3, AfL2S2 (form IA^C carboxysomal rubisco). Nature of the experiment: inhibited ECM-CABP (ECMC) complex, reactivation by CbbQO activase, coupled spectrophotometric rubisco assay. To be noted: 20 mM NaHCO3, Mg2+, 25 °C; PEG 3350; active site, tight-binding transition-state analog. Type of experiment: biochemical.
In experiment [13] the target is T7, HnLS (form IA^C carboxysomal rubisco). The description is as above. To be noted: 20 mM NaHCO3, Mg2+, 25 °C; PEG 3350; active site, tight-binding transition-state analog. Type of experiment: biochemical.
Experiment [14] deals with T8, AfL2S2 (form IA^C carboxysomal rubisco). Described as above. Type of experiment: biochemical. The note with it: 20 mM NaHCO3, Mg2+, 25 °C; PEG 3350; active site, tight-binding transition-state analog.
Experiment [15] addresses T4, AfL2S2 (form IA^C carboxysomal rubisco). The description is as above. To be noted: 20 mM NaHCO3, Mg2+, 25 °C; PEG 3350; active site, tight-binding transition-state analog; printed as VNR C terminus substituted with AHK. Format: biochemical.

T8 sequence (B7JB30 whole entry N472H): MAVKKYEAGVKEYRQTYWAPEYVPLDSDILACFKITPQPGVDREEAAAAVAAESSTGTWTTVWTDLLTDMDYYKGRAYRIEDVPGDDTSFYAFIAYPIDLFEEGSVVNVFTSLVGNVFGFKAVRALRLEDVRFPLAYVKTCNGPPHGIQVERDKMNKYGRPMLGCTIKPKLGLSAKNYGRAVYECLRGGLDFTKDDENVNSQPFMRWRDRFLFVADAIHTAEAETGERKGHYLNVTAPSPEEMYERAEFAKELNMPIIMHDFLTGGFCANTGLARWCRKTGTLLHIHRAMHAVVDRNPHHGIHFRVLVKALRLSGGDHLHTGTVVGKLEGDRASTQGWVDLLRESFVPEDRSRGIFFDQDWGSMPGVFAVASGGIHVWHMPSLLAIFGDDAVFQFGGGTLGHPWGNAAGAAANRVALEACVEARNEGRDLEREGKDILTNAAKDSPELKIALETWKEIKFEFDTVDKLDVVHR
T8 sequence (B7JB29 entry or part of it, stated change not applied, further chain): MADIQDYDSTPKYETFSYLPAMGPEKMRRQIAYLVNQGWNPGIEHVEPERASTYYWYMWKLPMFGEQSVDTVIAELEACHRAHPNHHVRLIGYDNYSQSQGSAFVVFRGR
T3 sequence (B7JB30 whole entry): as the sequence (B7JB30 whole entry N472H) above, with H472N counted along it
T3 sequence (B7JB29 1-110 partner): as the sequence (B7JB29 entry or part of it, stated change not applied, further chain) above
T4 sequence (B7JB30 whole entry V471A/N472H/R473K): as the sequence (B7JB30 whole entry N472H) above, with V471A, R473K counted along it
T4 sequence (B7JB29 entry or part of it, stated change not applied, further chain): as the sequence (B7JB29 entry or part of it, stated change not applied, further chain) above

With `Nc1ncnc2c1ncn2[C@@H]1O[C@H](COP(=O)(O)OP(=O)(O)OP(=O)(O)O)[C@@H](O)[C@H]1O` [ATP], the “ATPase, coupled spectrophotometric assay” value in [1] and in experiment [2] was “The ATPase activity of the purified AfQ3O3 complex was similar to that of the AfQ1O1” each time.

In the case of “A. ferrooxidans CbbQ1-CbbO1 rubisco activase complex (form IA^Q associated)”, the Rca activity: activation of CABP-inhibited rubisco (ECMC), coupled spectrophotometric rubisco assay, 5% v/v PEG, 20 mM NaHCO3; against wildtype AfL2S2 in experiment [3] and in [4] was 6 fold each time.

As for `O=C(COP(=O)(O)O)[C@H](O)[C@H](O)COP(=O)(O)O` [ribulose 1,5-bisphosphate], the RuBP release rate entry in experiment [5] was “The RuBP release rate was derived from the ER time courses”; at SynLS (form IB rubisco), “the very loose RuBP-binding phenotype of the cyanobacterial form IB SynLS rubisco”; in [7], “(AfL1S1) formed a stable binary complex with RuBP and had the slowest inhibitor release rate”; in experiment [8], “The RuBP release rate was derived from the ER time courses”. Further, the “spontaneous RuBP release from ER complex” value in experiment [6] was “displayed similar carboxylation kinetics and spontaneous RuBP release under our assay conditions”; in experiment [9] it was “displayed similar carboxylation kinetics and spontaneous RuBP release under our assay conditions”.

Consider “A. ferrooxidans CbbQ3-CbbO3 rubisco activase complex (carboxysomal, form IA^C associated)”, for which the figures for the Rca activity: activation of CABP-inhibited rubisco (ECMC), coupled spectrophotometric rubisco assay, 13% v/v PEG, 20 mM NaHCO3; against wildtype AfL2S2 in experiment [10] and in [11] were 60 % reduction and 30 % increase, respectively.

As for `O=C(O)[C@@](O)(COP(=O)(O)O)[C@H](O)[C@H](O)COP(=O)(O)O` (mixture of isomers) [carboxy-arabinitol 1,5-bisphosphate], the “inhibited ECM-CABP (ECMC) complex, reactivation by CbbQO activase, coupled spect” value in experiment [12] is on record as “ability to remove the transition state analog CABP from the A. ferrooxidans form IA^C (AfL2S2) holoenzyme”; in [13] it was “HnQO was able to remove CABP from its cognate form IA^C rubisco HnLS”; in experiment [14], “mutation at the C terminus of AfL2S2 enhances activation of ECMC complexes by Q1O1”; in [15] it was “mutation at the C terminus of AfL2S2 enhances activation of ECMC complexes by Q1O1”.
